The Deep4Chem optical property database
Where “and” joins values, the source holds several entries; their conditions need not be identical. Identical values can stand only once. Values belong to the molecule of their own block, whether it stands above or below them.

Test: solvent given as SMILES

Compound: CC(C)(C)c1ccc2c(c1)c1cc(C(C)(C)C)ccc1n2-c1ccc(N(c2ccc(-c3ccc(-c4ccc(-c5ccc(-c6ccc(N(c7ccc(-n8c9ccc(C(C)(C)C)cc9c9cc(C(C)(C)C)ccc98)cc7)c7ccc(-n8c9ccc(C(C)(C)C)cc9c9cc(C(C)(C)C)ccc98)cc7)cc6)cc5)c5nsnc45)cc3)cc2)c2ccc(-n3c4ccc(C(C)(C)C)cc4c4cc(C(C)(C)C)ccc43)cc2)cc1
emission maximum (in ClCCl): 513 nm

Compound: c1ccc(-c2nc(-c3ccccc3)nc(-c3ccc(N4c5ccccc5CCc5ccccc54)cc3)n2)cc1
emission maximum (in Cc1ccccc1): 422.22 nm

Compound: N#Cc1ccc(C#Cc2ncc(-c3ccccc3)o2)cc1
emission maximum (in ClCCl): 410 nm

Compound: CC1(C)c2cc(C#N)ccc2-c2ccc(N3c4ccccc4Oc4ccccc43)cc21
emission maximum (in C1CCCCC1): 433 nm | emission maximum (in C1CCOC1): 550 nm | emission maximum (in CC#N): 620 nm | emission maximum (in Cc1ccccc1): 487 nm | emission maximum (in ClC(Cl)Cl): 530 nm

Compound: CC1=CC(C)=[N+]2C1=C(c1ccccc1)c1c(C)cc(C)n1[B-]2(F)F
emission maximum (in C1CCOC1): 512 nm and 510 nm | emission maximum (in CC#N): 508 nm | emission maximum (in CC(=O)C(C)(C)C): 511 nm | emission maximum (in CC(C)=O): 509 nm | emission maximum (in CCCCCC): 511 nm | emission maximum (in CCOC(C)=O): 510 nm | emission maximum (in CO): 509 nm and 510 nm | emission maximum (in Cc1ccccc1): 516 nm | emission maximum (in ClCCl): 513 nm

Compound: CCCCC(CC)Cn1c2ccc(C(=C(C#N)C#N)c3ccccc3)cc2c2c(-c3ccc(Br)cc3)c3c(c(-c4ccc(Br)cc4)c21)c1cc(C(=C(C#N)C#N)c2ccccc2)ccc1n3CC(CC)CCCC (centres undefined)
emission maximum (in C1CCOC1): 584 nm | emission maximum (in CC#N): 536 nm | emission maximum (in CCO): 576 nm | emission maximum (in CCOC(C)=O): 582 nm | emission maximum (in CN(C)C=O): 535 nm | emission maximum (in Cc1ccccc1): 540 nm | emission maximum (in ClCCl): 597 nm | emission maximum (in c1ccccc1): 543 nm

Compound: Cc1cc(C)c(B(c2ccc(-c3ccc4ccc5cccc6ccc3c4c56)cc2)c2c(C)cc(C)cc2C)c(C)c1
emission maximum (in Cc1ccccc1): 431 nm

Compound: CCNc1cc2oc(=O)cc(C)c2cc1C
emission maximum (in CC#N): 420 nm

Compound: N#Cc1cc(C#N)cc(-n2c3ccccc3c3cc(-c4ccc5c(c4)c4ccccc4n5-c4cc(C#N)cc(C#N)c4)ccc32)c1
emission maximum (in Cc1ccccc1): 470 nm | emission maximum (in O=P(c1ccccc1)(c1ccccc1)c1ccccc1Oc1ccccc1P(=O)(c1ccccc1)c1ccccc1): 470 nm

Compound: Fc1ccc2c(c1)sc1nc(-c3ccccc3)sc12
emission maximum (in CS(C)=O): 407 nm

Compound: N#CC(C#N)=Cc1ccc2c(c1)c1ccccc1n2-c1cc2ccccc2c2ccccc12
emission maximum (in CC#N): 503 nm | emission maximum (in CCCCC): 451 nm | emission maximum (in Cc1ccccc1): 445 nm | emission maximum (in ClCCl): 480 nm

Compound: Cc1cc2c(cc1N1c3ccccc3C(C)(C)c3ccccc31)C(C)(C)c1cc(N3c4ccccc4C(C)(C)c4ccccc43)c(C)cc1S2(=O)=O
emission maximum (in Cc1ccccc1): 442.11 nm | emission maximum (in ClCCl): 495 nm

Compound: COc1ccc2c3ccc(OC)cc3n(-c3ccc(-c4nnc(-c5c(C(C)C)cc(C(C)C)cc5C(C)C)o4)cc3)c2c1
emission maximum (in Cc1ccccc1): 437 nm

Compound: Cc1cccc2[n+]1[B-](c1ccccc1)(c1ccccc1)c1cccc3c4c5c(cccc5c-2c13)[B-](c1ccccc1)(c1ccccc1)[n+]1c(C)cccc1-4
emission maximum (in ClCCl): 611 nm

Compound: CCC1(CC)c2cc(C=C(C#N)C#N)ccc2-c2ccc(N(C)C)cc21
emission maximum (in C1CCCCC1): 528 nm | emission maximum (in CC#N): 688 nm | emission maximum (in CCO): 677 nm | emission maximum (in CCOCC): 579 nm | emission maximum (in CS(C)=O): 711 nm | emission maximum (in ClCCl): 631 nm | emission maximum (in c1ccccc1): 560 nm

Compound: [O-][n+]1c(/C=C/c2ccccc2)nc(N2CCOCC2)c2c1CCCC2
emission maximum (in ClCCl): 535 nm

Compound: CCN(CC)c1cc2oc3cc(O)c(F)cc3c(=O)c2cc1F
emission maximum (in CCO): 438 nm

Compound: CC(C)(C)c1cc2ccc3cc(C(C)(C)C)cc4c3c2c(c1)c(=O)n1c4nc2c3cc(C(C)(C)C)cc4ccc5cc(C(C)(C)C)cc(c5c43)c21
emission maximum (in C1CCOC1): 523 nm | emission maximum (in CC#N): 551 nm | emission maximum (in CC(C)=O): 544 nm | emission maximum (in CCCCCC): 495 nm | emission maximum (in CCOC(C)=O): 524 nm | emission maximum (in CS(C)=O): 553 nm | emission maximum (in Cc1ccc(C)cc1): 521 nm | emission maximum (in ClC(Cl)(Cl)Cl): 520 nm | emission maximum (in ClC(Cl)Cl): 551 nm | emission maximum (in c1ccccc1): 524 nm

Compound: CN(C)c1ccc(/C=C/c2ccc(-c3nnc(-c4ccc(-c5cc6ccccc6s5)cc4)o3)cc2)cc1
emission maximum (in CC#N): 397 nm | emission maximum (in CC(C)=O): 395 nm | emission maximum (in CCCCCCCC): 387 nm | emission maximum (in CCCCCCCCCCO): 394 nm | emission maximum (in CCCCCCCCO): 398 nm | emission maximum (in CCCCCO): 399 nm | emission maximum (in CCCO): 399 nm | emission maximum (in CN(C)C=O): 401 nm | emission maximum (in CO): 404 nm | emission maximum (in CS(C)=O): 408 nm

Compound: COc1ccc(-c2nc3ccccc3nc2-c2ccc(OC)cc2)cc1
emission maximum (in C1CCOC1): 432 nm | emission maximum (in CC#N): 435 nm | emission maximum (in CCCCCC): 423 nm | emission maximum (in CN(C)C=O): 432 nm | emission maximum (in Cc1ccccc1): 426 nm | emission maximum (in ClC(Cl)Cl): 430 nm

Compound: O=S(=O)(c1ccccc1)c1ccc(-c2ccc3c(c2)c2cc(-c4ccc(S(=O)(=O)c5ccccc5)cc4)ccc2n3-c2ccccc2)cc1
emission maximum (in CCCCCC): 377 nm | emission maximum (in CN(C)C=O): 431 nm | emission maximum (in CO): 434 nm | emission maximum (in Cc1ccccc1): 381 nm | emission maximum (in ClCCl): 395 nm

Compound: COc1ccc(-c2ccc(-c3ccc(C#N)s3)s2)cc1
emission maximum (in C1CCCCC1): 445 nm | emission maximum (in C1COCCO1): 455 nm | emission maximum (in CC#N): 476 nm | emission maximum (in CC(C)O): 471 nm | emission maximum (in CCCCO): 471 nm | emission maximum (in CCO): 474 nm | emission maximum (in CCOC(C)=O): 461 nm | emission maximum (in CN(C)C=O): 479 nm | emission maximum (in CO): 476 nm | emission maximum (in CS(C)=O): 484 nm | emission maximum (in Cc1ccccc1): 450 nm | emission maximum (in ClC(Cl)Cl): 465 nm | emission maximum (in ClCCl): 468 nm | emission maximum (in O): 529 nm

Compound: O=c1cc2cc(O)c3cc(O)cc4ccc(o1)c2c43
emission maximum (in CC1CCCO1): 483 nm

Compound: CN1C(=CC2=C([O-])C(=Cc3sc4ccccc4[n+]3C)C2=C(C#N)C#N)Sc2ccccc21
emission maximum (in ClC(Cl)Cl): 723 nm

Compound: COc1ccc(C2=C(c3ccc([N+](=O)[O-])cc3)C(c3ccccc3)=[N+]3C2=Nc2c(-c4ccc(OC)cc4)c(-c4ccc([N+](=O)[O-])cc4)c(-c4ccccc4)n2[B-]3(F)F)cc1
emission maximum (in Cc1ccccc1): 688 nm

Compound: CN1C(=CC2=C([O-])C(=CC3=[N+](C)c4ccccc4C3(C)C)C2=C2C(=O)NC(=O)NC2=O)C(C)(C)c2ccccc21
emission maximum (in ClC(Cl)Cl): 665 nm

Compound: O=c1oc2ccccc2cc1-c1ccc(-c2cc3ccccc3oc2=O)cc1
emission maximum (in CC#N): 426 nm | emission maximum (in CCO): 426 nm | emission maximum (in CCOC(C)=O): 426 nm | emission maximum (in CS(C)=O): 430 nm | emission maximum (in Cc1ccccc1): 424 nm | emission maximum (in ClC(Cl)Cl): 430 nm

Compound: Cn1cccc1-c1ccc(C#N)cc1
emission maximum (in C1CCOC1): 383 nm | emission maximum (in CC#N): 407 nm | emission maximum (in CCCCCC): 357 nm | emission maximum (in CCCCOCCCC): 367 nm | emission maximum (in CCOCC): 371 nm

Compound: CN(C)c1cc2c(cc1F)c(=O)c1cc(F)c(N3CCCCC3)cc1n2C
emission maximum (in CCO): 443 nm

Compound: C(=C(c1ccccc1)c1ccccc1)c1ccc(-c2ccc(C=C(c3ccccc3)c3ccccc3)cc2)cc1
emission maximum (in C1CCOC1): 445 nm

Compound: COc1cccc2cc(C#N)c(=N)oc12
emission maximum (in ClCCl): 462 nm

Compound: Cc1ccccc1-c1c2ccc(=[N+]3CCOCC3)cc-2oc2cc(N3CCCCC3)ccc12
emission maximum (in CCO): 582 nm | emission maximum (in ClCCl): 579 nm

Compound: O[Si](c1c2ccccc2cc2ccccc12)(c1c2ccccc2cc2ccccc12)c1c2ccccc2cc2ccccc12
emission maximum (in ClC(Cl)Cl): 434 nm

Compound: N#Cc1c(-n2c3ccccc3c3ccccc32)c(C#N)c(-n2c3ccccc3c3ccccc32)c(-n2c3ccccc3c3ccccc32)c1-n1c2ccccc2c2ccccc21
emission maximum (in Cc1ccccc1): 507 nm

More lines, now with the values ahead:

emission maximum (in C1CCCCC1): 368 nm
Compound: CCCC1(CCC)c2cc(-c3ccc(C(C)(C)CC)cc3)ccc2-c2ccc(-c3ccc(C(C)(C)CC)cc3)cc21

emission maximum (in ClC(Cl)Cl): 565 nm
Compound: CCCCCCN1C(=O)c2cccc3cc(/N=C\c4ccc(N(c5ccccc5)c5ccccc5)cc4)cc(c23)C1=O

emission maximum (in ClCCl): 470 nm
Compound: CCCCCCCCOc1cc(/C=C/c2ccncc2)c(OCCCCCCCC)cc1/C=C/c1ccncc1

emission maximum (in C1CCOC1): 444 nm
Compound: CCCCCOc1cc2oc(=O)c3c4ccc(C#N)cc4c4ccc5cccc6c(c1)c2c3c4c56

emission maximum (in C1CCCCC1): 421 nm | emission maximum (in CC#N): 432 nm | emission maximum (in CO): 428 nm | emission maximum (in ClCCl): 431 nm
Compound: COc1c2ccccc2c(OC)c2c1c1cc(Cl)ccc1n2C

emission maximum (in ClCCl): 425 nm
Compound: O=P1(c2ccccc2)C(c2ccc(C(F)(F)F)cc2)=Cc2cc3ccccc3cc21 (centres undefined)

emission maximum (in CS(C)=O): 527 nm
Compound: C(/C=C/Nc1cccc2ccccc12)=[NH+]c1cccc2ccccc12

emission maximum (in ClCCl): 360 nm
Compound: c1ccc(-n2c3ccccc3c3cc(-c4cccc(-n5c6ccccc6c6ncccc65)c4)ccc32)cc1

emission maximum (in C1COCCO1): 616 nm
Compound: COc1ccc(C2=C/C(=C\c3ccc([N+](=O)[O-])cc3)C(=O)N2CC(C)C)cc1

emission maximum (in ClC(Cl)Cl): 501 nm
Compound: CCCCCCN1C(=O)c2cccc3cc(/N=C\c4ccc5c(c4)c4ccccc4n5CC)cc(c23)C1=O

emission maximum (in CC#N): 456 nm | emission maximum (in CCCCCC): 385 nm
Compound: C(=C\c1cccnc1)/c1ccc(Nc2ccccc2)cc1

emission maximum (in CC#N): 434 nm
Compound: C(=C\c1nc2c3ccccc3c3ccccc3c2o1)/c1ccccc1

emission maximum (in CN(C)C=O): 395 nm
Compound: COCCC1(CCOC)c2cc(-c3ccc(OC)cc3)ccc2-c2ccc(-c3ccc4c(c3)C(CCOC)(CCOC)c3cc(-c5ccc(OC)cc5)ccc3-4)cc21

emission maximum (in CC#N): 440 nm
Compound: Cc1ccc(C#Cc2ccc3ccc(=O)oc3c2)cc1

emission maximum (in ClCCl): 415 nm
Compound: CCCCC(CC)COc1ccc2nc(-c3ccc(-c4c(C)noc4C)s3)sc2c1 (centres undefined)

emission maximum (in C1CCCCC1): 535 nm | emission maximum (in ClC(Cl)Cl): 727 nm
Compound: CN(C)c1ccc2nc(-c3ccc(C=C4C(=O)c5ccccc5C4=O)cc3)sc2c1

emission maximum (in CS(C)=O): 562 nm | emission maximum (in ClCCl): 528 nm
Compound: CCCCCCCCCCCCN(CCCCCCCCCCCC)c1ccc2c(c1)oc(=O)c1c(=O)oc3ccccc3c12

emission maximum (in CC#N): 732 nm | emission maximum (in ClCCl): 740 nm
Compound: F[B-]1(F)n2c(-c3cccs3)cc(-c3ccccc3)c2N=C2C(c3ccccc3)=CC(c3cccs3)=[N+]21
